For 19 molecules, T/C results are on record in PubChem BioAssay AID192 (DTP/NCI, 2004).

Values joined by “and” are separate entries in the source; they are usually repeats but may differ in a detail not shown here. Equal values may be shown once. Toxic doses and inconclusive results are not listed.

For the assay, the system named is BDF1 mice, B16 melanoma ip, median survival T/C. The assay can be described thus: NCI In Vivo Anticancer Drug Screen. Data for tumor model B16 Melanoma (intraperitoneal) in B6D2F1 (BDF1) mice. The note with it: endpoint: median survival time, higher = longer survival. An outline of the steps: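 Antitumor activity is assessed in mice bearing a transplanted tumor, with survival or tumor size compared against vehicle-dosed controls and expressed as T/C.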

[1] abbreviates: dose: 50.0 mg/kg/injection, schedule: Q01DX009 (ip), vehicle: saline.
[2] abbreviates: dose: 100.0 mg/kg/injection, schedule: Q01DX009 (ip), vehicle: saline.
Setting [3] is: dose: 200.0 mg/kg/injection, schedule: Q01DX009 (ip), vehicle: saline.
Where [4] appears, read: dose: 100.0 mg/kg/injection, schedule: Q01DX009 (ip), vehicle: saline with Tween-80.
Setting [5] is: dose: 200.0 mg/kg/injection, schedule: Q01DX009 (ip), vehicle: saline with Tween-80.
Where [6] appears, read: dose: 400.0 mg/kg/injection, schedule: Q01DX009 (ip), vehicle: saline with Tween-80.
[7] abbreviates: dose: 25.0 mg/kg/injection, schedule: Q01DX009 (ip), vehicle: saline.
Setting [8] is: dose: 50.0 mg/kg/injection, schedule: Q01DX009 (ip), vehicle: saline with Tween-80.
[9] abbreviates: dose: 12.5 mg/kg/injection, schedule: Q01DX009 (ip), vehicle: saline.

`CC(C)=CCN1CCC2(C)c3cc(O)ccc3CC1C2C` (stereo not drawn): the T/C (dose: 0.39 mg/kg/injection, schedule: Q01DX009 (ip), vehicle: Klucel (hydroxypropylcellulose) (HPC)) is 123 % of control; the T/C (dose: 0.78 mg/kg/injection, schedule: Q01DX009 (ip), vehicle: Klucel (hydroxypropylcellulose) (HPC)) is 102 % of control; the T/C (dose: 1.56 mg/kg/injection, schedule: Q01DX009 (ip), vehicle: Klucel (hydroxypropylcellulose) (HPC)) was 123 % of control; the T/C (dose: 6.25 mg/kg/injection, schedule: Q01DX009 (ip), vehicle: Klucel (hydroxypropylcellulose) (HPC)) is 105 % of control.

For the molecule `Cc1nc(N)nc(N)c1-c1ccc(Cl)c(Cl)c1`, the T/C by setting is: (dose: 0.25 mg/kg/injection, schedule: Q01DX009 (ip), vehicle: saline with Tween-80) 104 % of control; (dose: 0.5 mg/kg/injection, schedule: Q01DX009 (ip), vehicle: saline with Tween-80) 102 % of control; (dose: 0.62 mg/kg/injection, schedule: Q01DX009 (ip), vehicle: saline) 102 % of control; (dose: 0.75 mg/kg/injection, schedule: Q01DX009 (ip), vehicle: saline with Tween-80) 115 % of control; (dose: 1.0 mg/kg/injection, schedule: Q01DX009 (ip), vehicle: saline with Tween-80) 100 % of control; (dose: 1.0 mg/kg/injection, schedule: Q02DX009 (ip), vehicle: Klucel (hydroxypropylcellulose) (HPC)) 98 % of control. Further, the T/C (dose: 1.0 mg/kg/injection, schedule: Q02DX009 (ip), vehicle: saline with Tween-80) is 113 % of control; the T/C (dose: 1.25 mg/kg/injection, schedule: Q01DX009 (ip), vehicle: saline) is 107 % of control; the T/C (dose: 1.5 mg/kg/injection, schedule: Q04DX003 (ip), vehicle: saline with Tween-80) was 90 % of control; the T/C (dose: 2.0 mg/kg/injection, schedule: Q01DX009 (ip), vehicle: saline with Tween-80) is 120 % of control; the T/C (dose: 2.0 mg/kg/injection, schedule: Q02DX009 (ip), vehicle: Klucel (hydroxypropylcellulose) (HPC)) was 100 % of control; the T/C (dose: 2.0 mg/kg/injection, schedule: Q02DX009 (ip), vehicle: saline with Tween-80) is 119 % of control. The T/C is 112 % of control (dose: 3.0 mg/kg/injection, schedule: Q01DX009 (ip), vehicle: saline with Tween-80); 90 % of control (dose: 3.0 mg/kg/injection, schedule: Q04DX003 (ip), vehicle: saline with Tween-80); 100 % of control (dose: 4.0 mg/kg/injection, schedule: Q02DX009 (ip), vehicle: Klucel (hydroxypropylcellulose) (HPC)); 96 % of control (dose: 4.0 mg/kg/injection, schedule: Q04DX003 (ip), vehicle: saline with Tween-80); 102 % of control (dose: 6.0 mg/kg/injection, schedule: Q04DX003 (ip), vehicle: saline with Tween-80); 121 % of control (dose: 8.0 mg/kg/injection, schedule: Q02DX009 (ip), vehicle: Klucel (hydroxypropylcellulose) (HPC)). In addition, the T/C is, setting by setting: (dose: 8.0 mg/kg/injection, schedule: Q04DX003 (ip), vehicle: saline with Tween-80) 97 % of control; (dose: 10.0 mg/kg/injection, schedule: Q04DX003 (ip), vehicle: saline with Tween-80) 93 % of control.

As to `c1ccc2c(c1)CNNC2`, the T/C runs as follows: under setting [1], 123 % of control; under setting [2], 111 % of control; under setting [3], 100 % of control.

Take `NC(Cc1ccc(Cl)cc1)C(=O)O` (stereo not drawn): the T/C is, setting by setting: under setting [4], 123 % of control; under setting [5], 115 % of control; under setting [6], 104 % of control.

Consider `CC(CO)NC(=O)C1C=C2c3cccc4[nH]cc(c34)CC2N(C)C1` (stereo not drawn), for which the T/C under setting [7] is 91 % of control, the T/C under setting [1] was 91 % of control and the T/C under setting [3] was 86 % of control.

Regarding `CCCN(C)/N=N/c1nc[nH]c1C(N)=O`, the T/C under setting [8] was 112 % of control.

`CCC[CH2][Sn]1([CH2]CCC)[N](S(=O)(=O)c2ccc(C)cc2)c2ccccc2[N]1S(=O)(=O)c1ccc(C)cc1`: the T/C (dose: 1.5 mg/kg/injection, schedule: Q01DX009 (ip), vehicle: Klucel (hydroxypropylcellulose) (HPC)) is 87 % of control and the T/C (dose: 3.0 mg/kg/injection, schedule: Q01DX009 (ip), vehicle: Klucel (hydroxypropylcellulose) (HPC)) is 102 % of control.

For `CNC(=O)CCCCC(=O)NC`, the T/C reads like this: under setting [8], 102 % of control; under setting [4], 116 % of control; under setting [5], 124 % of control; under setting [6], 115 % of control.

For the molecule `NC(=O)Nc1ccccc1`, the T/C is 97 % of control under setting [2]; 100 % of control under setting [3]; 104 % of control (dose: 400.0 mg/kg/injection, schedule: Q01DX009 (ip), vehicle: saline).

As to `N#CNN=Nc1cc(Cl)c(Cl)c(Cl)c1`, the T/C is 120 % of control under setting [9] and 111 % of control under setting [7].

In the case of `O=C(Nc1ccc(C(=O)O)cc1)Nc1nccs1`, the T/C reads like this: (dose: 25.0 mg/kg/injection, schedule: Q01DX009 (ip), vehicle: distilled water + Tween-80) 113 % of control; (dose: 100.0 mg/kg/injection, schedule: Q01DX009 (ip), vehicle: distilled water + Tween-80) 113 % of control; (dose: 200.0 mg/kg/injection, schedule: Q01DX009 (ip), vehicle: distilled water + Tween-80) 113 % of control.

As to `COc1cc(C(=O)OCCCN2CCOCC2)cc(OC)c1OC`, the T/C was 105 % of control (dose: 0.78 mg/kg/injection, schedule: Q01DX009 (ip), vehicle: saline); 110 % of control (dose: 1.56 mg/kg/injection, schedule: Q01DX009 (ip), vehicle: saline); 110 % of control (dose: 3.12 mg/kg/injection, schedule: Q01DX009 (ip), vehicle: saline); 105 % of control (dose: 6.25 mg/kg/injection, schedule: Q01DX009 (ip), vehicle: saline); 110 % of control under setting [9]; 89 % of control under setting [3].

With `CSc1sc2ccccc2[n+]1C`, the T/C reads like this: under setting [7], 100 % of control; under setting [1], 98 % of control; under setting [2], 91 % of control.

As to `CCOC(=O)C1=C(O)c2c(sc(C)c2C)N(S(=O)(=O)c2ccc(C)cc2)CC1`, the T/C is, setting by setting: (dose: 12.5 mg/kg/injection, schedule: Q04DX003 (ip), vehicle: saline with Tween-80) 116 % of control; (dose: 25.0 mg/kg/injection, schedule: Q04DX003 (ip), vehicle: saline with Tween-80) 113 % of control; (dose: 50.0 mg/kg/injection, schedule: Q04DX003 (ip), vehicle: saline with Tween-80) 111 % of control; (dose: 100.0 mg/kg/injection, schedule: Q04DX003 (ip), vehicle: saline with Tween-80) 111 % of control; (dose: 200.0 mg/kg/injection, schedule: Q04DX003 (ip), vehicle: saline with Tween-80) 108 % of control.

Take `O=C1c2c(O)cccc2-c2nn(CCNCCO)c3ccc(NCCNCCO)c1c23`: the T/C was 306 % of control (dose: 2.75 mg/kg/injection, schedule: Q01DX009 (ip), vehicle: water) and 306 % of control (dose: 5.5 mg/kg/injection, schedule: Q01DX009 (ip), vehicle: water).

As to `COc1ccc(N2C(=O)CC(Sc3ccccc3N)C2=O)cc1` (stereo not drawn), the T/C reads like this: (dose: 25.0 mg/kg/injection, schedule: Q01DX009 (ip), vehicle: Klucel (hydroxypropylcellulose) (HPC)) 94 % of control; (dose: 50.0 mg/kg/injection, schedule: Q01DX009 (ip), vehicle: Klucel (hydroxypropylcellulose) (HPC)) 86 % of control; (dose: 100.0 mg/kg/injection, schedule: Q01DX009 (ip), vehicle: Klucel (hydroxypropylcellulose) (HPC)) 97 % of control.

For `O=C(C1CO1)C(Cl)(Cl)Cl` (stereo not drawn), the T/C is, setting by setting: under setting [9], 105 % of control; under setting [7], 110 % of control.

`COc1cc(NCc2ccc3nc(N)nc(N)c3c2C)cc(OC)c1OC`: the T/C by setting is: (dose: 0.62 mg/kg/injection, schedule: Q01DX009 (ip), vehicle: sodium bicarbonate) 104 % of control; (dose: 1.25 mg/kg/injection, schedule: Q01DX009 (ip), vehicle: sodium bicarbonate) 101 % of control and 117 % of control; (dose: 2.5 mg/kg/injection, schedule: Q01DX009 (ip), vehicle: sodium bicarbonate) 107 % of control and 124 % of control; (dose: 5.0 mg/kg/injection, schedule: Q01DX009 (ip), vehicle: sodium bicarbonate) 124 % of control; (dose: 10.0 mg/kg/injection, schedule: Q01DX009 (ip), vehicle: sodium bicarbonate) 155 % of control; (dose: 20.0 mg/kg/injection, schedule: Q01DX009 (ip), vehicle: sodium bicarbonate) 150 % of control and 164 % of control.

`O=C1C(Cl)=C(Nc2ccc(C(=O)Nc3ccc4cc(S(=O)(=O)O)cc(S(=O)(=O)O)c4c3)cc2)C(=O)C(Cl)=C1Nc1ccc(C(=O)Nc2ccc3cc(S(=O)(=O)O)cc(S(=O)(=O)O)c3c2)cc1`: the T/C under setting [1] is 109 % of control, the T/C under setting [2] was 102 % of control and the T/C under setting [3] was 100 % of control.
